pKi: −log10 of the molar value. “And” between values parts separate entries of the source, which are not always exact repeats. Equal values may be shown once.
Columns and labels:
D(2) dopamine receptor = D(2) dopamine receptor (Homo sapiens, UniProt P14416)
[1] = biological target: T1, Muscarinic acetylcholine receptor M4 (Homo sapiens, UniProt P08173)
T1 sequence (P08173 whole entry): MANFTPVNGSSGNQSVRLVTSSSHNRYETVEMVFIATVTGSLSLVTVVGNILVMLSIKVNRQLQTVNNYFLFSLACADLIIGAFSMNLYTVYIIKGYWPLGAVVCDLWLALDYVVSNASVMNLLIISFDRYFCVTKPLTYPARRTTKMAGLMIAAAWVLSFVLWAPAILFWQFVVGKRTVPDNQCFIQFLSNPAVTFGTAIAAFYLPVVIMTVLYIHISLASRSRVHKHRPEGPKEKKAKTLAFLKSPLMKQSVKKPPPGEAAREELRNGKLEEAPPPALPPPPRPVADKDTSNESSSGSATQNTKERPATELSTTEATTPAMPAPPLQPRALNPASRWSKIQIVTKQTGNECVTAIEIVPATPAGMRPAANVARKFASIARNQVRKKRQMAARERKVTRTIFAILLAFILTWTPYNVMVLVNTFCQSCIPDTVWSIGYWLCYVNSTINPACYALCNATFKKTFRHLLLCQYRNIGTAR

Mu-type opioid receptor = Mu-type opioid receptor (Homo sapiens, UniProt P35372)
[2] = biological target: 5-hydroxytryptamine receptor 6 (Homo sapiens, UniProt P50406)
[3] = biological target: T2, Alpha-2A adrenergic receptor (Homo sapiens, UniProt P08913)
T2 sequence (P08913 whole entry): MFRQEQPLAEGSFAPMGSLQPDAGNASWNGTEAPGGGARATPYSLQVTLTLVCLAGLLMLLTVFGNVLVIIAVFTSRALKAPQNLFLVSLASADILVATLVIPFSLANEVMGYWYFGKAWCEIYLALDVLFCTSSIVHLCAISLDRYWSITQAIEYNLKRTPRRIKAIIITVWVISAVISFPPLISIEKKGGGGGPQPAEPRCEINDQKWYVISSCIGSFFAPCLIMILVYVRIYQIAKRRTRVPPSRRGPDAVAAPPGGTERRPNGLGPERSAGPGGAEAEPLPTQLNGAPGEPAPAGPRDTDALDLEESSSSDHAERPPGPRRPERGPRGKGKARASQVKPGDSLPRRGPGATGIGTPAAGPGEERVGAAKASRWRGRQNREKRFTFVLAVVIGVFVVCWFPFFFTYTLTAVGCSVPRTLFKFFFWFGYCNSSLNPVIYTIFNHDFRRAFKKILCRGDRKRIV

[4] = biological target: Glutamate receptor ionotropic, NMDA 1 (Rattus norvegicus, UniProt P35439)
[5] = biological target: 5-hydroxytryptamine receptor 2A (Rattus norvegicus, UniProt P14842)
[6] = biological target: T3, Alpha-2C adrenergic receptor (Homo sapiens, UniProt P18825)
T3 sequence (P18825 whole entry): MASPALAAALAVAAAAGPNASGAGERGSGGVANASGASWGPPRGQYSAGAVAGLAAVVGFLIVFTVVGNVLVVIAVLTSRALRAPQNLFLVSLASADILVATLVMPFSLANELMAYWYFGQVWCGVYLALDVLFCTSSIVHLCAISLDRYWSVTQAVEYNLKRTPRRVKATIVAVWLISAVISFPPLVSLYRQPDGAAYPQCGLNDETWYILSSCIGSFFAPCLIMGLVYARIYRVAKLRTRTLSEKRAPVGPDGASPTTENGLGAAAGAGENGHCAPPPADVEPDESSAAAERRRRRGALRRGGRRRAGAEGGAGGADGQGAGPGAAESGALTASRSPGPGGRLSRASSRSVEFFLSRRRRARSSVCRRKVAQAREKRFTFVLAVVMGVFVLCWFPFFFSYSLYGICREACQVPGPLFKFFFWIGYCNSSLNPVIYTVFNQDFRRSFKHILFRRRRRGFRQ

[7] = biological target: T4, 5-hydroxytryptamine receptor 1A (Homo sapiens, UniProt P08908)
T4 sequence (P08908 whole entry): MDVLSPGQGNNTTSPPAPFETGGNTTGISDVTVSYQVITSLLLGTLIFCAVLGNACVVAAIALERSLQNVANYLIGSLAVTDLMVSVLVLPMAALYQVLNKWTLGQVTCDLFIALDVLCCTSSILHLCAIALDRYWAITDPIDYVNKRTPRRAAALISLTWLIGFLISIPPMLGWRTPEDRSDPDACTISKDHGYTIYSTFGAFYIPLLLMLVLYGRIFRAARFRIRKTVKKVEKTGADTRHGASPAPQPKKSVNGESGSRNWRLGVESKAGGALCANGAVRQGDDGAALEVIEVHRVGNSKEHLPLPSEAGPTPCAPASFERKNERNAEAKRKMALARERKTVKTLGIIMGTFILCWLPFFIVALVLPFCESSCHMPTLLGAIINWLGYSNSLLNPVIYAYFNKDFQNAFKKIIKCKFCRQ

[8] = biological target: T5, 5-hydroxytryptamine receptor 2C (Rattus norvegicus, UniProt P08909)
T5 sequence (P08909 whole entry): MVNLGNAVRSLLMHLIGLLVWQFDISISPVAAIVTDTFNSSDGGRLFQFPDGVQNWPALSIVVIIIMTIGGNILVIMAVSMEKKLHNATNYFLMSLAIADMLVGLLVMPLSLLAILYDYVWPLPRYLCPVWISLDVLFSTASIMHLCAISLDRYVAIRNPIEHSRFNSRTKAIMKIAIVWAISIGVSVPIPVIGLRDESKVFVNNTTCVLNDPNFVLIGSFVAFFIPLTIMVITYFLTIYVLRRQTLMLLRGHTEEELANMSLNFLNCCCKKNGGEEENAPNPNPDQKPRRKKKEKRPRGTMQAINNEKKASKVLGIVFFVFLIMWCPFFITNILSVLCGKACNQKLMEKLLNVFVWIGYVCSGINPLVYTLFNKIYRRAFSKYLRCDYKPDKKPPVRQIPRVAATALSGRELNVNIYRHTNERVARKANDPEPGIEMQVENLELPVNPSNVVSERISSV

D(2) dopamine receptor, sequence (P14416 whole entry): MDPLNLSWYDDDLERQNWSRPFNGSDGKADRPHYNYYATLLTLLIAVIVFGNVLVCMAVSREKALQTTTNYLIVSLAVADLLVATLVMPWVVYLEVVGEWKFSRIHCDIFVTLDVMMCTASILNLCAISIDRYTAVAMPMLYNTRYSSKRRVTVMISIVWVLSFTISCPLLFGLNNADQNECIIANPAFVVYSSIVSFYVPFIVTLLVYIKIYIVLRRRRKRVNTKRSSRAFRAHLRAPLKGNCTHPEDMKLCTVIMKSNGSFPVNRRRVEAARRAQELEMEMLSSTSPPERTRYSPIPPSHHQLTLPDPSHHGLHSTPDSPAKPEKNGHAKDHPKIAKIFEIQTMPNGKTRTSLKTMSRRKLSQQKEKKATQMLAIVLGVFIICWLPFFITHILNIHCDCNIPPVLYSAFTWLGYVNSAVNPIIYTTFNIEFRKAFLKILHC
Mu-type opioid receptor, sequence (P35372 whole entry): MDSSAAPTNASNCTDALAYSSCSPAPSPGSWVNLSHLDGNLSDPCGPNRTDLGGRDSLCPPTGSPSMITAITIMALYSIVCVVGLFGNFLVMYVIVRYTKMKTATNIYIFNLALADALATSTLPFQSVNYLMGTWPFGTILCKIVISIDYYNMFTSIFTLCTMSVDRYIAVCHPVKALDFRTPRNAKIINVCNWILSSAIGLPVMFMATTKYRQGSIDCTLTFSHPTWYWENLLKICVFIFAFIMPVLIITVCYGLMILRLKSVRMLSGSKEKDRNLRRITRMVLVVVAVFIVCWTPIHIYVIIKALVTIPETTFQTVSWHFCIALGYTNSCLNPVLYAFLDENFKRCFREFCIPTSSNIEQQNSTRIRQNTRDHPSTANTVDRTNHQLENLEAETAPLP
5-hydroxytryptamine receptor 2A, sequence (P14842 whole entry): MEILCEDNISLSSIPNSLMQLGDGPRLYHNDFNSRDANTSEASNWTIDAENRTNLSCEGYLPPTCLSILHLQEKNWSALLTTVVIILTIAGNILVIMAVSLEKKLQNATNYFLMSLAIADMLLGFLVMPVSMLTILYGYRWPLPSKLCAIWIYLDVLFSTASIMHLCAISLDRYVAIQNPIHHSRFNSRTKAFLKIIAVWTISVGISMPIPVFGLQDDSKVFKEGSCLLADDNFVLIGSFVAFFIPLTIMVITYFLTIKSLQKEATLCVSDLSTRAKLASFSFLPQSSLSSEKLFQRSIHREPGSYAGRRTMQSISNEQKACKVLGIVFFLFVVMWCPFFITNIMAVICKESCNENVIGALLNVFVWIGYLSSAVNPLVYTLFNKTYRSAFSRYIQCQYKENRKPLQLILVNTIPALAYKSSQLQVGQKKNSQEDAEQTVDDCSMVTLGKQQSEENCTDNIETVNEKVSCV
5-hydroxytryptamine receptor 6, sequence (P50406 whole entry): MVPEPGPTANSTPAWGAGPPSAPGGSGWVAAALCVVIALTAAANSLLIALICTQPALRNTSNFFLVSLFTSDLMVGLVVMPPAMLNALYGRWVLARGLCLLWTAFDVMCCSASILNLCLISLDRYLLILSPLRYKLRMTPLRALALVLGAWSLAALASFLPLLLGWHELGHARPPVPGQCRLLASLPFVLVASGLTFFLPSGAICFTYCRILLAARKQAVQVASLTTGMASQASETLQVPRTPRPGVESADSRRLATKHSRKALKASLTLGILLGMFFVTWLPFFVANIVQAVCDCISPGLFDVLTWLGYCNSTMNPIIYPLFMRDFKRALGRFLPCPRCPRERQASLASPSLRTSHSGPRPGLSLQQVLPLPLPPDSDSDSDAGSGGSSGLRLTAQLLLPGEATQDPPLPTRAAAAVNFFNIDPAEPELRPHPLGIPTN

| Compound | pKi (D(2) dopamine receptor) | pKi [1] | pKi (Mu-type opioid receptor) | pKi [2] | pKi [3] | pKi [4] | pKi [5] | pKi [6] | pKi [7] | pKi [8] |
| --- | --- | --- | --- | --- | --- | --- | --- | --- | --- | --- |
| N[C@@H](CCS(=O)(=O)O)C(=O)O (racemic) | < 5.00 | < 5.00 | < 5.00 | < 5.00 | < 5.00 | < 5.00 | < 5.00 | < 5.00 | < 5.00 | < 5.00 |
| N[C@@H](CCS)C(=O)O (racemic) [CAS_778] | < 5.00 | < 5.00 | < 5.00 | < 5.00 | < 5.00 | < 5.00 | < 5.00 | < 5.00 | < 5.00 | < 5.00 |
| NC(CS(=O)O)C(=O)O (stereo not given) [CAS_109] | < 5.00 | < 5.00 | < 5.00 | < 5.00 | < 5.00 | < 5.00 | < 5.00 | < 5.00 | < 5.00 | < 5.00 |
| NC(CSSCC(N)C(=O)O)C(=O)O (stereo not given) [CAS_595] | < 5.00 | < 5.00 | < 5.00 | < 5.00 | < 5.00 | < 5.00 and 5.49 | < 5.00 | < 5.00 | < 5.00 | < 5.00 |
| N[C@@H](CS)C(=O)O [CAS_5862] | < 5.00 | < 5.00 | < 5.00 | < 5.00 | < 5.00 | < 5.00 | < 5.00 | < 5.00 | < 5.00 | < 5.00 |
| CSCC[C@@H](N)C(=O)O [CAS_6137] | < 5.00 | < 5.00 | < 5.00 | < 5.00 | < 5.00 | < 5.00 | < 5.00 | < 5.00 | < 5.00 | < 5.00 |
| N[C@H](CCS(=O)(=O)O)C(=O)O [D-homocysteic acid] | < 5.00 | < 5.00 | < 5.00 | < 5.00 | < 5.00 | < 5.00 | < 5.00 | < 5.00 | < 5.00 | < 5.00 |
| N[C@H](CCS(=O)O)C(=O)O [D-homocysteine sulfinic acid] | < 5.00 | < 5.00 | < 5.00 | < 5.00 | < 5.00 | < 5.00 | < 5.00 | < 5.00 | < 5.00 | < 5.00 |
| N[C@@H]1CCSC1=O [D-homocysteine thiolactone] | < 5.00 | < 5.00 | < 5.00 | < 5.00 | < 5.00 | < 5.00 | < 5.00 | < 5.00 | < 5.00 | < 5.00 |
| N[C@H](CS(=O)(=O)O)C(=O)O [L-cysteic acid] | < 5.00 | < 5.00 | < 5.00 | < 5.00 | < 5.00 | < 5.00 | < 5.00 | < 5.00 | < 5.00 | < 5.00 |
| N[C@@H](CCS(=O)O)C(=O)O [L-homocysteine sulfinic acid] | < 5.00 | < 5.00 | < 5.00 | < 5.00 | < 5.00 | < 5.00 | < 5.00 | < 5.00 | < 5.00 | < 5.00 |
| N[C@H]1CCSC1=O [NSC_134505] | < 5.00 | < 5.00 | < 5.00 | < 5.00 | < 5.00 | < 5.00 | < 5.00 | < 5.00 | < 5.00 | < 5.00 |

— BindingDB's records for doi:10.1124/jpet.102.047092 (Case Western Reserve University, 2003)
